Reference: ChEMBL document CHEMBL5728999, “Sulfoximine glycosidase inhibitors” (2022)

Biological target: T1, Protein O-GlcNAcase (Homo sapiens, UniProt O60502)
T1 sequence (O60502 whole entry): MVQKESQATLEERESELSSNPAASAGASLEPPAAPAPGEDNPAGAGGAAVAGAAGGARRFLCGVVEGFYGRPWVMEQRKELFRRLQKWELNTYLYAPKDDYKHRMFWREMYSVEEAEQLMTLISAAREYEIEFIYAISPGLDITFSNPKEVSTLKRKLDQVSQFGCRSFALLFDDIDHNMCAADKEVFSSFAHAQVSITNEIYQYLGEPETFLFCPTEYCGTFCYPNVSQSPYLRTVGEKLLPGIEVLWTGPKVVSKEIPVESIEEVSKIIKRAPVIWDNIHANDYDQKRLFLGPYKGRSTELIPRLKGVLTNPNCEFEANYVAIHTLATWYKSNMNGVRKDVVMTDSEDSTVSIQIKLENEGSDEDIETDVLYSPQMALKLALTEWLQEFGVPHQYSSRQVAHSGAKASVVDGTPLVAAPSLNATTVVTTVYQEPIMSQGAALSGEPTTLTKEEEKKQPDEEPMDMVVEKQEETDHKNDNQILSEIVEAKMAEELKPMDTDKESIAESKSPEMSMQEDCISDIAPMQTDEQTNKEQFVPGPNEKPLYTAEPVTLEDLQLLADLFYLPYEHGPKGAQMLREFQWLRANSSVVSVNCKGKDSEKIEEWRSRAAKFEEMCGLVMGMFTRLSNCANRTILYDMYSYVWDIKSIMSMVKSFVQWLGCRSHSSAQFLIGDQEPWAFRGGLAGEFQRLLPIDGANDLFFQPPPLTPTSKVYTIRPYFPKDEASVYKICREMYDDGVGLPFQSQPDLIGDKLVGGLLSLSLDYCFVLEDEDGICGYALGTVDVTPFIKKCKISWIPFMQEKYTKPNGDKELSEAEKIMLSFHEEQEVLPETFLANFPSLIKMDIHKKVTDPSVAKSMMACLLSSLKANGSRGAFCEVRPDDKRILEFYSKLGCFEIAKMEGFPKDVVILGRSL
Test: Human O-GlcNAcase enzyme inhibition assay: 5 μl of the appropriate concentration of a solution of inhibitor in McIlvaine's Buffer (pH 6.5) in 2% DMSO (for a dose response curve calculation) is added into each well of a 384-well plate (Greiner, 781900). Then, 20 nM of His-Tagged hOGA and 10 μM of FL-GlcNAc (Fluorescein mono-beta-D-(2-deoxy-2-N-acetyl) glucopyranoside; Marker Gene Technologies Inc, M1485) were added to the 384-well plate for a final volume of 20 μl. After incubation for 60 min at room temperature, the reaction was terminated by the addition of 10 μL of stop buffer (200 mM glycine, pH 10.75).

Q: CC(c1ccc2c(c1)OCC2)N1CCN(c2ncnc3c2CS(=N)(=O)C3)CC1 (stereo unspecified) was tested. Which IC50 did it give?
A: < 0.05 µM
